Assay results reported in PubChem BioAssay AID1259411 (Chemical Carcinogenesis Research Information System (CCRIS), 2018).
The source made the active and inactive calls. The rule behind the calls is not given here.

System: rodent carcinogenicity bioassays, tumor incidence
Experiment: CCRIS carcinogenicity studies
Procedure, shortened: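 Archive of carcinogenicity, mutagenicity, tumor promotion and tumor inhibition results drawn from journals, NCI reports and other sources, expert-reviewed; covers 1985-2011 and is no longer updated.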

Measured: carcinogen call

O[C@@H]1[C@@H]2O[C@@H]2c2c(cc3ccc4cccc5ccc2c3c45)[C@H]1O
active: Species: MOUSE, Strain/Sex: ICR/FEMALE, Route: INTRAPERITONEAL, Dose: 0, 25 NMOL (TOTAL DOSE) ADMINISTERED IN DOSES OF 1/7, 2/7, AND 4/7 ON DAYS 1, 7, AND 15 OF LIFE, RESPECTIVELY (STUDY DUR, Tumor Site: Type of Lesion: LUNG: TUMOR active; positive | Species: MOUSE, Strain/Sex: ICR/FEMALE, Route: INTRAPERITONEAL, Dose: 0;25 NMOL TOTAL DOSE INJECTED IN DOSES OF 1/7 ON DAY 1, 2.7 ON DAY 8, AND 4/7 ON DAY 15 OF LIFE (STUDY DURATION: 35 WK), Tumor Site: Type of Lesion: LUNG: TUMOR active; positive | Species: MOUSE, Strain/Sex: ICR/MALE, Route: INTRAPERITONEAL, Dose: 0, 25 NMOL TOTAL DOSE INJECTED IN DOSES OF 1/7 ON DAY 1, 2/7 ON DAY 8, AND 4/7 ON DAY 15 OF LIFE (STUDY DURATION: 35 WK), Tumor Site: Type of Lesion: LUNG:TUMOR active; positive | Species: MOUSE, Strain/Sex: ICR/MALE, Route: INTRAPERITONEAL, Dose: 0, 25 NMOL (TOTAL DOSE) ADMINISTERED IN DOSES OF 1/7, 2/7, AND 4/7 ON DAYS 1, 7, AND 15 OF LIFE, RESPECTIVELY (STUDY DUR, Tumor Site: Type of Lesion: LUNG: TUMOR active; positive | Species: RAT, Strain/Sex: STRAIN-CD/FEMALE, Route: INJECTION, Dose: 0, 2.04 UMOL IN 0.1 ML DMSO 3 INJECTIONS INTO MAMMARY TISSUE BENEATH THE 3 LEFT THORACIC NIPPLES ON THE NEXT DAY PROCEDU, Tumor Site: Type of Lesion: MAMMARY GLAND: TUMOR active; positive | Species: RAT, Strain/Sex: STRAIN-CD/FEMALE, Route: INJECTION, Dose: 0, 2.04 UMOL IN 0.1 ML DMSO INJECTED BENEATH EACH THE THREE LEFT THORACIC NIPPLES THEN ON THE NEXT DAY BENEATH EACH OF T, Tumor Site: Type of Lesion: MAMMARY GLAND: TUMOR active; positive

Cc1ccccc1N
active: Species: MOUSE, Strain/Sex: B6C3F1/FEMALE, Route: ORAL, Dose: 0, 1000, 3000 PPM IN DIET FOR 103 WK, Dose: 0, 1000, 3000 PPM IN DIET FOR 103 WK, Tumor Site: Type of Lesion: LIVER: HEPATOCELLULAR CARCINOMA OR HEPATOCELLULAR ADENOMA active; positive | Species: MOUSE, Strain/Sex: B6C3F1/MALE, Route: ORAL, Dose: 0, 1000, 3000 PPM IN DIET FOR 102-103 WK, Dose: 0, 1000, 3000 PPM IN DIET FOR 102-103 WK, Tumor Site: Type of Lesion: BLOOD VESSELS: HEMANGIOMA OR HEMANGIOSARCOMA active; positive | Species: MOUSE, Strain/Sex: CD-1/MALE,FEMALE, Route: ORAL, Dose: 0, 16000, 32000 MG/KG FOR 3 MO, THEN 0, 8000, 16000 MG/KG FOR 15 MO, Dose: 0, 16000, 32000 MG/KG FOR 3 MO, THEN 0, 8000, 16000 MG/KG FOR 15 MO, Tumor Site: Type of Lesion: BLOOD VESSELS: HEMANGIOMA, HEMANGIOSARCOMA active; positive | Species: RAT, Strain/Sex: CD-1/MALE, Route: ORAL, Dose: 0, 8000, 16000 MG/KG FOR 3 MO, THEN 0, 4000, 8000 MG/KG FOR 15 MO, Dose: 0, 8000, 16000 MG/KG FOR 3 MO, THEN 0, 4000, 8000 MG/KG FOR 15 MO, Tumor Site: Type of Lesion: INTEGUMENTARY SYSTEM (SUBCUTANEOUS TISSUE): FIBROMA, FIBROSARCOMA active; positive | Species: RAT, Strain/Sex: F344/FEMALE, Route: ORAL, Dose: 0, 3000, 6000, PPM IN DIET FOR 104 WK (STUDY DURATION: 104 WK), Dose: 0, 3000, 6000, PPM IN DIET FOR 104 WK (STUDY DURATION: 104 WK), Tumor Site: Type of Lesion: SPLEEN OR PERITONEUM: SARCOMA active; positive | Species: RAT, Strain/Sex: F344/FEMALE, Route: ORAL, Dose: 0, 3000, 6000 PPM IN DIET FOR 104 WK, Dose: 0, 3000, 6000 PPM IN DIET FOR 104 WK, Tumor Site: Type of Lesion: SPLEEN: ANGIOSARCOMA, SARCOMA (NOS) OR ANGIOSARCOMA OR OSTEOSARCOMA, URINARY BLADDER: TRANSITIONAL CELL CARCINOMA, TRANS active; positive | Species: RAT, Strain/Sex: F344/MALE, Route: ORAL, Dose: 0, 3000, 6000 PPM IN DIET FOR 101-104 WK, Dose: 0, 3000, 6000 PPM IN DIET FOR 101-104 WK, Tumor Site: Type of Lesion: INTEGUMENTARY SYSTEM (SUBCUTANEOUS TISSUE): FIBROMA, SPLEEN: FIBROMA, ANGIOSARCOMA, MULTIPLE ORGANS OR TUNICA VAGINALIS:, Tumor Site: Type of Lesion: INTEGUMENTARY SYSTEM (SUBCUTANEOUS TISSUE): FIBROMA, SPLEEN: FIBROMA, ANGIOSARCOMA, MULTIPLE ORGANS OR TUNICA VAGINALIS: active; positive | Species: RAT, Strain/Sex: F344/MALE, Route: ORAL, Dose: 0, 3000, 6000 PPM IN DIET FOR 104 WK (STUDY DURATION: 104 WK), Dose: 0, 3000, 6000 PPM IN DIET FOR 104 WK (STUDY DURATION: 104 WK), Tumor Site: Type of Lesion: SPLEEN OR PERITONEUM: SARCOMA active; positive | Species: RAT, Strain/Sex: F344/MALE, Route: ORAL, Dose: 4.0 G/KG IN DIET FOR 72 WK (TOTAL DOSE 0.22 MOL/RAT), Tumor Site: Type of Lesion: SPLEEN: FIBROMA, INTEGUMENTARY SYSTEM (SKIN): FIBROMA, MAMMARY GLAND: FIBROADENOMA, ADENOCARCINOMA, PERITONEAL CAVITY: M, Tumor Site: Type of Lesion: SPLEEN: FIBROMA, INTEGUMENTARY SYSTEM (SKIN): FIBROMA, MAMMARY GLAND: FIBROADENOMA, ADENOCARCINOMA, PERITONEAL CAVITY: M active; positive

C[CH2][Pb]([CH2]C)([CH2]C)[CH2]C
active: Species: MOUSE, Strain/Sex: ICR/FEMALE, Route: SUBCUTANEOUS, Dose: 0, 0.1 MG IN TRICAPRYLIN AT DAYS 1 AND 7 OF AGE AND 0, 0.2 MG AT DAYS 14 AND 21 OF AGE FOR A TOTAL DOSE OF 0, 0.6 MG (ST, Dose: 0, 0.1 MG IN TRICAPRYLIN AT DAYS 1 AND 7 OF AGE AND 0, 0.2 MG AT DAYS 14 AND 21 OF AGE FOR A TOTAL DOSE OF 0, 0.6 MG (ST, Tumor Site: Type of Lesion: HEMATOPOIETIC SYSTEM: LYMPHOMA active; positive
inactive: Species: MOUSE, Strain/Sex: ICR/MALE, Route: SUBCUTANEOUS, Dose: 0, 0.1 MG IN TRICAPRYLIN ON DAYS 1 AND 7 OF AGE AND 0, 0.2 MG ON DAYS 14 AND 21 OF AGE FOR A TOTAL DOSE OF 0, 0.6 MG (ST, Dose: 0, 0.1 MG IN TRICAPRYLIN ON DAYS 1 AND 7 OF AGE AND 0, 0.2 MG ON DAYS 14 AND 21 OF AGE FOR A TOTAL DOSE OF 0, 0.6 MG (ST inactive; negative

O=c1[nH]c(=O)n([C@H]2C[C@H](O)[C@@H](CO)O2)cc1Br
active: Species: RAT, Strain/Sex: LIO/FEMALE, Route: SUBCUTANEOUS, Dose: 0, 3.2 MG ON DAY 1 OR ON DAYS 1 AND 3 OR ON DAYS 1, 3, 7, AND 21 FOLLOWING BIRTH FOR TOTAL DOSES OF 3.2, 6.4, OR 12.8 MG, Tumor Site: Type of Lesion: THYROID: ADENOMA, KIDNEY: MESENCHYMAL TUMORS active; positive | Species: RAT, Strain/Sex: LIO/MALE, Route: SUBCUTANEOUS, Dose: 0, 3.2 MG ON DAY 1 OR ON DAYS 1 AND 3 OR ON DAYS 1, 3, 7, AND 21 FOLLOWING BIRTH FOR TOTAL DOSES OF 3.2, 6.4, OR 12.8 MG, Tumor Site: Type of Lesion: TESTES: LEYDIGOMA active; positive

CC(O)c1ccccc1 (stereo not drawn)
active: Species: RAT, Strain/Sex: F344/MALE, Route: GAVAGE, Dose: 0, 375, 750 MG/KG IN CORN OIL 5 D/WK FOR 103 WK (STUDY DURATION: 105 WK), Dose: 0, 375, 750 MG/KG IN CORN OIL 5 D/WK FOR 103 WK (STUDY DURATION: 105 WK), Tumor Site: Type of Lesion: KIDNEY: TUBULAR CELL ADENOMA, TUBULAR CELL ADENOMA OR ADENOCARCINOMA active; positive
inactive: Species: MOUSE, Strain/Sex: B6C3F1/FEMALE, Route: GAVAGE, Dose: 0, 375, 750 MG/KG IN CORN OIL 5 D/WK FOR 103 WK (STUDY DURATION: 104 WK), Dose: 0, 375, 750 MG/KG IN CORN OIL 5 D/WK FOR 103 WK (STUDY DURATION: 104 WK) inactive; negative | Species: MOUSE, Strain/Sex: B6C3F1/MALE, Route: GAVAGE, Dose: 0, 375, 750 MG/KG IN CORN OIL 5 D/WK FOR 103 WK (STUDY DURATION: 104 WK), Dose: 0, 375, 750 MG/KG IN CORN OIL 5 D/WK FOR 103 WK (STUDY DURATION: 104 WK) inactive; negative | Species: RAT, Strain/Sex: F344/FEMALE, Route: GAVAGE, Dose: 0, 375, 750 MG/KG IN CORN OIL 5 D/WK FOR 103 WK (STUDY DURATION: 105 WK), Dose: 0, 375, 750 MG/KG IN CORN OIL 5 D/WK FOR 103 WK (STUDY DURATION: 105 WK) inactive; negative
